Results: patent publication US20240239792A1, “MODULATORS OF BCL-2 OR BCL-2/BCL-XL AND USES THEREOF” (APPICINE THERAPEUTICS (HK) LIMITED, priority 2021, published 2024)

What was measured:
BCL-2 = target: T1, BCL-2 (Homo sapiens, UniProt P10415); assay: HTRF BCL-2/BAK assay (Cisbio); assay type: binding; details: recombinant human Tag1-BCL-2 2 nM, Tag2-BAK 10 nM
T1 construct: purchased Cisbio 63ADK000CB01PEG
Procedure: (§1) Then the pre-mixed anti-Tag1-Eu^3+ and anti-tag2-XL665 were added to the plate and further incubated at room temperature for another 2 hours. The signals ([…]) were read on Envision 2104 instrument. The IC50 for each compound was derived from fitting the signal of 665/615 nM to the increasing compound concentration.
(§2) Using the above assays, the following compounds were tested.

DOHH2 cells = assay: CellTiter-Glo cell proliferation assay, DOHH2 cells; assay type: cell-based; details: Homo sapiens, DOHH-2, 72 hours
How it was run: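 DOHH2 cells seeded in DMEM + 10% FBS, exposed to serially diluted compound for 72 h at 37 °C, 5% CO2. Viability read by CellTiter-Glo luminescence; GI50 calculated.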

BCL-XL = target: T2, BCL-XL (Homo sapiens, UniProt Q07817); assay: HTRF BCL-XL/BAK assay (Cisbio); assay type: binding; details: recombinant human Tag1-BCL-XL 2 nM, Tag2-BAK 5 nM
T2 construct: purchased Cisbio 63ADK000CB04PEG
T2 sequence (Q07817 whole entry): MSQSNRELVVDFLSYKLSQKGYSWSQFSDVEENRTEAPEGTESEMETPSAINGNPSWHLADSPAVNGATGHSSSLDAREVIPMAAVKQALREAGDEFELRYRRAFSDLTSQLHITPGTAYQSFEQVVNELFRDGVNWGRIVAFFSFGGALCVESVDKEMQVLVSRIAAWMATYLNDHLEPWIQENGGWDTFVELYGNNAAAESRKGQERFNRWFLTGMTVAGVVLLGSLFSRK
Procedure: as §1, §2

T1 sequence (P10415 whole entry): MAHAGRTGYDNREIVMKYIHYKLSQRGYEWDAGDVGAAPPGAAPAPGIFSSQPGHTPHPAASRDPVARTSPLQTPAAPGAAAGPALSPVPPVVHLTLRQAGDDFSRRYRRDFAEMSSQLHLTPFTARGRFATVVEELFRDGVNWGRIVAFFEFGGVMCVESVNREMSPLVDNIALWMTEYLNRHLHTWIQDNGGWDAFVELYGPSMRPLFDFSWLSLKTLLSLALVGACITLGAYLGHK

Row | IC50 (BCL-2) [nM] | IC50 (BCL-XL) [nM] | Structure (SMILES) | GI50 (DOHH2 cells) [nM]
1 | < 20 | 200 to 2000 | CC(=O)Nc1ccc2c(c1)C(N1CCN(c3ccc(C(=O)NS(=O)(=O)c4ccc(NCC5CCOCC5)c([N+](=O)[O-])c4)c(Oc4cnc5[nH]ccc5c4)c3)CC1)CCCC2 (stereo not drawn) [Compound 34, 2-((1H-pyrrolo[2,3-b]pyridin-5-yl)oxy)-4-(4-(3-acetamido-6,7,8,9-tetrahydro-5H-benzo[7]annulen-5-yl)piperazin-1-yl)-N-((3-nitro-4-(((tetrahydro-2H-pyran-4-yl)methyl)amino)phenyl)sulfonyl)benzamide] | 500 to 5000
2 | 20 to 200 | 200 to 2000 | Cc1ccc(S(=O)(=O)N2CCc3ccccc3C(N3CCN(c4ccc(C(=O)NS(=O)(=O)c5ccc(NCC6CCOCC6)c([N+](=O)[O-])c5)c(Oc5cnc6[nH]ccc6c5)c4)CC3)C2)cc1 (stereo not drawn) [Compound 35, 2-((1H-pyrrolo[2,3-b]pyridin-5-yl)oxy)-N-((3-nitro-4-(((tetrahydro-2H-pyran-4-yl)methyl)amino)phenyl)sulfonyl)-4-(4-(3-tosyl-2,3,4,5-tetrahydro-1H-benzo[d]azepin-1-yl)piperazin-1-yl)benzamide] | 500 to 5000
3 | < 20 | 200 to 2000 | O=C(NS(=O)(=O)c1ccc(NCC2CCOCC2)c([N+](=O)[O-])c1)c1ccc(N2CCN(C3CCCCc4ccc(F)cc43)CC2)cc1Oc1cnc2[nH]ccc2c1 (stereo not drawn) [Compound 37, 2-((1H-pyrrolo[2,3-b]pyridin-5-yl)oxy)-4-(4-(3-fluoro-6,7,8,9-tetrahydro-5H-benzo[7]annulen-5-yl)piperazin-1-yl)-N-((3-nitro-4-(((tetrahydro-2H-pyran-4-yl)methyl)amino)phenyl)sulfonyl)benzamide] | 50 to 500
4 | < 20 | 200 to 2000 | O=C(NS(=O)(=O)c1ccc(NCC2CCC3(CC2)COC3)c([N+](=O)[O-])c1)c1ccc(N2CCN(C3CCCCc4c(Cl)cccc43)CC2)cc1Oc1cnc2[nH]ccc2c1 (stereo not drawn) [Compound 38, 2-((1H-pyrrolo[2,3-b]pyridin-5-yl)oxy)-N-((4-(((2-oxaspiro[3.5]nonan-7-yl)methyl)amino)-3-nitrophenyl)sulfonyl)-4-(4-(1-chloro-6,7,8,9-tetrahydro-5H-benzo[7]annulen-5-yl)piperazin-1-yl)benzamide] | < 50
5 | < 20 | 20 to 200 | CC(=O)N1CCN(CCNc2ccc(S(=O)(=O)NC(=O)c3ccc(N4CCN(C5CCCCc6c(Cl)cccc65)CC4)cc3Oc3cnc4[nH]ccc4c3)cc2[N+](=O)[O-])CC1 (stereo not drawn) [Compound 39, 2-((1H-pyrrolo[2,3-b]pyridin-5-yl)oxy)-N-((4-((2-(4-acetylpiperazin-1-yl)ethyl)amino)-3-nitrophenyl)sulfonyl)-4-(4-(1-chloro-6,7,8,9-tetrahydro-5H-benzo[7]annulen-5-yl)piperazin-1-yl)benzamide] | < 50
6 | 20 to 200 | > 2000 | O=C(NS(=O)(=O)c1ccc(NCC2CCOCC2)c([N+](=O)[O-])c1)c1ccc(N2CCN([C@@H]3CCCCc4c(O)cccc43)CC2)cc1Oc1cnc2[nH]ccc2c1 [Compound 40, (R)-2-((1H-pyrrolo[2,3-b]pyridin-5-yl)oxy)-4-(4-(1-hydroxy-6,7,8,9-tetrahydro-5H-benzo[7]annulen-5-yl)piperazin-1-yl)-N-((3-nitro-4-(((tetrahydro-2H-pyran-4-yl)methyl)amino)phenyl)sulfonyl)benzamide] | 500 to 5000

Further lines, the molecule ahead of its results:

Row | Structure (SMILES) | IC50 (BCL-2) [nM] | IC50 (BCL-XL) [nM] | GI50 (DOHH2 cells) [nM]
7 | O=C(NS(=O)(=O)c1ccc(NCC2CCOCC2)c([N+](=O)[O-])c1)c1ccc(N2CCN(C3CCCCc4c(-c5ccccc5)cccc43)CC2)cc1Oc1cnc2[nH]ccc2c1 (stereo not drawn) [Compound 19, 2-((1H-pyrrolo[2,3-b]pyridin-5-yl)oxy)-N-((3-nitro-4-(((tetrahydro-2H-pyran-4-yl)methyl)amino)phenyl)sulfonyl)-4-(4-(1-phenyl-6,7,8,9-tetrahydro-5H-benzo[7]annulen-5-yl)piperazin-1-yl)benzamide] | < 20 | > 2000 | 500 to 5000
8 | Cc1cccc2c1CCCCC2N1CCN(c2ccc(C(=O)NS(=O)(=O)c3ccc(NCC4CCOCC4)c([N+](=O)[O-])c3)c(Oc3cnc4[nH]ccc4c3)c2)CC1 (stereo not drawn) [Compound 20, 2-((1H-pyrrolo[2,3-b]pyridin-5-yl)oxy)-4-(4-(1-methyl-6,7,8,9-tetrahydro-5H-benzo[7]annulen-5-yl)piperazin-1-yl)-N-((3-nitro-4-(((tetrahydro-2H-pyran-4-yl)methyl)amino)phenyl)sulfonyl)benzamide] | < 20 | 200 to 2000 | 50 to 500
9 | O=C(NS(=O)(=O)c1ccc(NCC2CCOCC2)c([N+](=O)[O-])c1)c1ccc(N2CCN(C3CCCCc4ccc(Br)cc43)CC2)cc1Oc1cnc2[nH]ccc2c1 (stereo not drawn) [Compound 21, 2-((1H-pyrrolo[2,3-b]pyridin-5-yl)oxy)-4-(4-(3-bromo-6,7,8,9-tetrahydro-5H-benzo[7]annulen-5-yl)piperazin-1-yl)-N-((3-nitro-4-(((tetrahydro-2H-pyran-4-yl)methyl)amino)phenyl)sulfonyl)benzamide] | < 20 | > 2000 | 50 to 500
10 | O=C(NS(=O)(=O)c1ccc(NCC2CCOCC2)c([N+](=O)[O-])c1)c1ccc(N2CCN(C3CCCCc4cc(Br)ccc43)CC2)cc1Oc1cnc2[nH]ccc2c1 (stereo not drawn) [Compound 23, 2-((1H-pyrrolo[2,3-b]pyridin-5-yl)oxy)-4-(4-(2-bromo-6,7,8,9-tetrahydro-5H-benzo[7]annulen-5-yl)piperazin-1-yl)-N-((3-nitro-4-(((tetrahydro-2H-pyran-4-yl)methyl)amino)phenyl)sulfonyl)benzamide] | 20 to 200 | 200 to 2000 | 500 to 5000
11 | O=C(NS(=O)(=O)c1ccc(NCC2CCOCC2)c([N+](=O)[O-])c1)c1ccc(N2CCN(C3CCCCc4cc(Cl)ccc43)CC2)cc1Oc1cnc2[nH]ccc2c1 (stereo not drawn) [Compound 25, 2-((1H-pyrrolo[2,3-b]pyridin-5-yl)oxy)-4-(4-(2-chloro-6,7,8,9-tetrahydro-5H-benzo[7]annulen-5-yl)piperazin-1-yl)-N-((3-nitro-4-(((tetrahydro-2H-pyran-4-yl)methyl)amino)phenyl)sulfonyl)benzamide] | 20 to 200 | 200 to 2000 | 50 to 500
12 | O=C(NS(=O)(=O)c1ccc(NCC2CCOCC2)c([N+](=O)[O-])c1)c1ccc(N2CCN(C3CCCCc4ccc(Cl)cc43)CC2)cc1Oc1cnc2[nH]ccc2c1 (stereo not drawn) [Compound 26, 2-((1H-pyrrolo[2,3-b]pyridin-5-yl)oxy)-4-(4-(3-chloro-6,7,8,9-tetrahydro-5H-benzo[7]annulen-5-yl)piperazin-1-yl)-N-((3-nitro-4-(((tetrahydro-2H-pyran-4-yl)methyl)amino)phenyl)sulfonyl)benzamide] | < 20 | > 2000 | 50 to 500
13 | O=C1CCC(N2CCN(c3ccc(C(=O)NS(=O)(=O)c4ccc(NCC5CCOCC5)c([N+](=O)[O-])c4)c(Oc4cnc5[nH]ccc5c4)c3)CC2)c2ccccc2N1 (stereo not drawn) [Compound 28, 2-((1H-pyrrolo[2,3-b]pyridin-5-yl)oxy)-N-((3-nitro-4-(((tetrahydro-2H-pyran-4-yl)methyl)amino)phenyl)sulfonyl)-4-(4-(2-oxo-2,3,4,5-tetrahydro-1H-benzo[b]azepin-5-yl)piperazin-1-yl)benzamide] | 20 to 200 | > 2000 | > 5000
14 | CN1CCC(CNc2ccc(S(=O)(=O)NC(=O)c3ccc(N4CCN(C5CCCCc6c(Cl)cccc65)CC4)cc3Oc3cnc4[nH]ccc4c3)cc2[N+](=O)[O-])CC1 (stereo not drawn) [Compound 29, 2-((1H-pyrrolo[2,3-b]pyridin-5-yl)oxy)-4-(4-(1-chloro-6,7,8,9-tetrahydro-5H-benzo[7]annulen-5-yl)piperazin-1-yl)-N-((4-(((1-methylpiperidin-4-yl)methyl)amino)-3-nitrophenyl)sulfonyl)benzamide] | < 20 | < 20 | < 50
15 | O=C(NS(=O)(=O)c1ccc(NCC2CCOCC2)c([N+](=O)[O-])c1)c1ccc(N2CCN(C3CCCCc4ccc([N+](=O)[O-])cc43)CC2)cc1Oc1cnc2[nH]ccc2c1 (stereo not drawn) [Compound 30, 2-((1H-pyrrolo[2,3-b]pyridin-5-yl)oxy)-N-((3-nitro-4-(((tetrahydro-2H-pyran-4-yl)methyl)amino)phenyl)sulfonyl)-4-(4-(3-nitro-6,7,8,9-tetrahydro-5H-benzo[7]annulen-5-yl)piperazin-1-yl)benzamide] | < 20 | 200 to 2000 | 500 to 5000
16 | CN1CCN(CCNc2ccc(S(=O)(=O)NC(=O)c3ccc(N4CCN(C5CCCCc6c(Cl)cccc65)CC4)cc3Oc3cnc4[nH]ccc4c3)cc2[N+](=O)[O-])CC1 (stereo not drawn) [Compound 32, 2-((1H-pyrrolo[2,3-b]pyridin-5-yl)oxy)-4-(4-(1-chloro-6,7,8,9-tetrahydro-5H-benzo[7]annulen-5-yl)piperazin-1-yl)-N-((4-((2-(4-methylpiperazin-1-yl)ethyl)amino)-3-nitrophenyl)sulfonyl)benzamide] | < 20 | < 20 | < 50
17 | O=C(NS(=O)(=O)c1ccc(NCC2CCOCC2)c([N+](=O)[O-])c1)c1ccc(N2CCN(C3CCCCc4c3cccc4[N+](=O)[O-])CC2)cc1Oc1cnc2[nH]ccc2c1 (stereo not drawn) [Compound 33, 2-((1H-pyrrolo[2,3-b]pyridin-5-yl)oxy)-N-((3-nitro-4-(((tetrahydro-2H-pyran-4-yl)methyl)amino)phenyl)sulfonyl)-4-(4-(1-nitro-6,7,8,9-tetrahydro-5H-benzo[7]annulen-5-yl)piperazin-1-yl)benzamide] | < 20 | 20 to 200 | < 50
